Measurements taken from patent US20110263610A1, “COMPOUNDS AND COMPOSITIONS AS ITPKB INHIBITORS” (IRM LLC, priority 2008, published 2011).

What follows are compounds tested against T1, ITPKb (Mus musculus, UniProt B2RXC2) (assay: Biochemical measurement of ITPKb activity (Kinase-Glo ATP depletion assay); inhibiting the phosphorylation of IP3 to IP4). Details: Table 1; inhibiting the phosphorylation of IP3 to IP4; read-out: IC50.
T1 construct: murine ITPKb residues 640-942; MGSDKIHHHHHH (His6 tag from MH4 plasmid) (N); made in house; host or cells: Escherichia coli HK100
T1 sequence (B2RXC2 640-942): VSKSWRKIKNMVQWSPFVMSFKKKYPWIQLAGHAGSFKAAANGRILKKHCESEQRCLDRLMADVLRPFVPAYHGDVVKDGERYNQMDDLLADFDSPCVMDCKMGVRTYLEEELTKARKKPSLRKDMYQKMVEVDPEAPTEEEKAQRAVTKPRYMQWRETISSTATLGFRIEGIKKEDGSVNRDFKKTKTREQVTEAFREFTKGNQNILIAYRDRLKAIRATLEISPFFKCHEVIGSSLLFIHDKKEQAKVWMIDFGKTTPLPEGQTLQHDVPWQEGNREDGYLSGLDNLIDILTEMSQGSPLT
Design: species or system murine
Description: Compounds of the present invention are assayed to measure their capacity to inhibit ITPKb according to the following assays.
The DNA sequence encoding murine ITPKb residues 640-942 is amplified from a full-length construct in mammalian expression vector pKDNZ by PCR. The 3′-primer incorporates a stop codon and an overhanging PacI site. The product is digested with Pad before being ligated into the MH4 plasmid which has been prepared by digestion with PmlI and PacI. Cloning into the MH4 plasmid adds the sequence MGSDKIHHHHHH to the N-terminus of the translated region. Mutant enzymes are made by site-directed mutagenesis using the Stratagene Quikchange kit.
ITPKb is expressed in the HK100 strain of Escherichia coli. Typically, a 4 L batch of cells is grown in LB with […] ampicillin to 0.5 A600 at 30 degrees C., before induction with 0.02% L-arabinose for 6 hours. Cells are harvested by centrifugation, and pellets are resuspended in 50 mL of 50 mM Tris (pH 8), 100 mM NaCl, 1 mM TCEP, and 0.1 mg/mL lysozyme, with 1 Complete protease inhibitor tablet (Roche). Cells are disrupted by sonication, and debris is removed by centrifugation for 40 minutes at 35000 g.
Initial purification is performed using three nickel-Sepharose Hi-Trap HP 1 mL columns (Amersham) connected in series. After application of the pellet supernatants, the bound material is washed with 20 mM Tris (pH 8.0), 20 mM imidazole, 10% glycerol (v/v), and 1 mM TCEP before elution with an imidazole gradient up to 200 mM.
Fractions containing ITPKb are identified by SDS-PAGE, and the pure fractions are concentrated and buffer exchanged using centriprep 20 15 kDa columns into 20 mM Tris (pH 8), 200 mM KCl, 5 mM MgCl2, 0.5 mM DTT, 10% glycerol, 1 μM IP3, and 20 μM ATP to a final protein concentration of 7 mg/mL.
ITPKb activity is determined using the Kinase-Glo (Promega) ATP depletion assay. The assay reaction buffer consists of 50 mM Tris (pH 8.0), 100 mM NaCl, 1 mM DTT, 10% glycerol, 5 mM MgCl2, 1 μM ATP, and 10 μM IP3 (Alexis Biochemicals). 50 nl of inhibitor is then added to each 40 μL reaction followed by a 10 μL addition of purified ITPKb (final concentration of 60 nM). The reaction mixture is incubated for 60 minutes at room temperature and stopped by the addition of an equal volume of kinase-glo reagent (Promega). Luminescence is measured using a Molecular Devices Acquest instrument.

SMILES	IC50 [nM]
C[C@@H]1CN(Cc2c[nH]nc2C(=O)Nc2cc(-c3ccco3)n[nH]2)CCN1c1ccc(C(F)(F)F)cn1 [Example 31]	5330
Cc1nc(-c2n[nH]cc2CN2CCN(c3ccc(C(F)(F)F)cn3)[C@H](C)C2)[nH]c1C [Example 25]	> 10000
C[C@@H]1CN(Cc2c[nH]nc2-c2cc(C(N)=O)co2)CCN1c1ccc(C(F)(F)F)cn1 [Example 53]	78
C[C@@H]1CN(Cc2c[nH]nc2C2CCNCC2)CCN1c1ccc(C(F)(F)F)cn1 [Example 48]	431
C[C@@H]1CN(Cc2c[nH]nc2-c2cc(C(=O)N[C@@H](C)CO)c[nH]2)CCN1c1ccc(C(F)(F)F)cn1 [Example 45]	6
C[C@@H]1CN(Cc2c[nH]nc2/C=C2\NC(=S)NC2=O)CCN1c1ccc(C(F)(F)F)cn1 [Example 46]	> 10000
C[C@@H]1CN(Cc2c[nH]nc2C(=O)Nc2n[nH]cc2C#N)CCN1c1ccc(C(F)(F)F)cn1 [Example 33]	> 10000
C[C@@H]1CN(Cc2c[nH]nc2-c2nc3c([nH]2)CCCC3)CCN1c1ccc(C(F)(F)F)cn1 [Example 26]	5010
C[C@@H]1CN(Cc2c[nH]nc2-c2nc3cc(C#N)ccc3[nH]2)CCN1c1ccc(C(F)(F)F)cn1 [Example 28]	2450
C[C@@H]1CN(Cc2c[nH]nc2C(=O)Nc2nc[nH]c2C#N)CCN1c1ccc(C(F)(F)F)cn1 [Example 30]	> 10000

Same assay, conditions: Table 2; inhibiting the phosphorylation of IP3 to IP4; read-out: IC50

SMILES	IC50 [nM]
C[C@@H]1CN(Cc2c[nH]nc2-c2nc3cnccc3[nH]2)CCN1c1ccc(C(F)(F)F)cn1 [Example 16, (R)-2-(4-((3-methyl-4-(5-(trifluoromethyl)pyridin-2-yl)piperazin-1-yl)methyl)-1H-pyrazol-3-yl)-1H-imidazo[4,5-c]pyridine]	975
C[C@@H]1CN(Cc2c[nH]nc2C(=O)Nc2ccncc2)CCN1c1ccc(C(F)(F)F)cn1 [Example 18, (R)-4-((3-methyl-4-(5-(trifluoromethyl)pyridin-2-yl)piperazin-1-yl)methyl)-N-(pyridin-4-yl)-1H-pyrazole-3-carboxamide]	449
C[C@@H]1CN(Cc2c[nH]nc2-c2nc(C(N)=O)c[nH]2)CCN1c1ccc(C(F)(F)F)cn1 [Example 14, (R)-2-(4-((3-methyl-4-(5-(trifluoromethyl)pyridin-2-yl)piperazin-1-yl)methyl)-1H-pyrazol-3-yl)-1H-imidazole-4-carboxamide]	24
C[C@@H]1CN(Cc2c[nH]nc2-c2nc(C#N)c[nH]2)CCN1c1ccc(C(F)(F)F)cn1 [Example 13, (R)-2-(4-((3-methyl-4-(5-(trifluoromethyl)pyridin-2-yl)piperazin-1-yl)methyl)-1H-pyrazol-3-yl)-1H-imidazole-4-carbonitrile]	102
C[C@@H]1CN(Cc2c[nH]nc2C2=CCNCC2)CCN1c1ccc(C(F)(F)F)cn1 [Example 9, (R)-2-methyl-4-((3-(1,2,3,6-tetrahydropyridin-4-yl)-1H-pyrazol-4-yl)methyl)-1-(5-(trifluoromethyl)pyridin-2-yl)piperazine]	278

Same assay, conditions: read-out: IC50 in inhibiting the phosphorylation of IP3 to IP4

SMILES	IC50 [nM]
C[C@@H]1CN(Cc2c[nH]nc2-c2ccc(C(N)=O)[nH]2)CCN1c1ccc(C(F)(F)F)cn1 [Example 5, (R)-5-(4-((3-methyl-4-(5-(trifluoromethyl)pyridin-2-yl)piperazin-1-yl)methyl)-1H-pyrazol-3-yl)-1H-pyrrole-2-carboxamide]	28
